Literature values, collected in article PMC9291711, “PLGA-modified Syloid®-based microparticles for the ocular delivery of terconazole: in-vitro and in-vivo investigations” (Drug Delivery, 2022).

Settings: stated without reference

Pka: 8
log P: 5.37
SMILES: CC(C)N1CCN(c2ccc(OCC3COC(Cn4cncn4)(c4ccc(Cl)cc4Cl)O3)cc2)CC1 (centres unmarked) [Terconazole, terconazole]
